The kinase profiling compilation of Christmann-Franck et al. (2016)

How the values were obtained:
Assay in all cases: radiometric filter-binding kinase assay
[1] = target: AURKB (human) (UniProt Q96GD4)
[2] = target: CDK2 CCNA2 (human) (UniProt P20248+P24941)
[3] = target: CHEK2 (human) (UniProt O96017)
[4] = target: CSK (human) (UniProt P41240)
[5] = target: CSNK2A1 (human) (UniProt P68400)
[6] = target: DAPK1 (human) (UniProt P53355)
[7] = target: EEF2K (human) (UniProt O00418)
[8] = target: EPHB3 (human) (UniProt P54753)
[9] = target: ERBB4 (human) (UniProt Q15303)
[10] = target: FGFR1 (human) (UniProt P11362)
[11] = target: GSK3B (human) (UniProt P49841)
[12] = target: IKBKB (human) (UniProt O14920)
[13] = target: INSRR (human) (UniProt P14616)
[14] = system: LCK (mouse); conditions: accession and sequence are those of the human protein
[15] = target: MAP2K2 (human) (UniProt P36507)
[16] = target: MAP3K9 (human) (UniProt P80192)
[17] = target: MAPK1 (human) (UniProt P28482)
[18] = target: MAPK13 (human) (UniProt O15264)
[19] = target: MAPKAPK3 (human) (UniProt Q16644)
[20] = target: MARK4 (human) (UniProt Q96L34)
[21] = target: MELK (human) (UniProt Q14680)
[22] = target: MINK1 (human) (UniProt Q8N4C8)
[23] = target: MKNK1 (human) (UniProt Q9BUB5)
[24] = target: MKNK2 (human) (UniProt Q9HBH9)
[25] = target: MYLK (human) (UniProt Q15746)
[26] = target: NTRK1 (human) (UniProt P04629)
[27] = target: PHKG1 (human) (UniProt Q16816)
[28] = system: PRKAA1 or PRKAA2 (rat); conditions: accession and sequence are those of the human protein
[29] = target: PRKACA (human) (UniProt P17612)
[30] = target: PRKCZ (human) (UniProt Q05513)
[31] = system: ROCK2 (rat); conditions: accession and sequence are those of the human protein
[32] = target: RPS6KA1 KD1 KD2 (human) (UniProt Q15418)
[33] = target: SRC (human) (UniProt P12931)
[34] = target: STK11 CAB39 STRADA (human) (UniProt Q9Y376+Q7RTN6+Q15831)
[35] = target: TTK (human) (UniProt P33981)

Chain of MYLK (human) (Q15746 whole entry, looked up): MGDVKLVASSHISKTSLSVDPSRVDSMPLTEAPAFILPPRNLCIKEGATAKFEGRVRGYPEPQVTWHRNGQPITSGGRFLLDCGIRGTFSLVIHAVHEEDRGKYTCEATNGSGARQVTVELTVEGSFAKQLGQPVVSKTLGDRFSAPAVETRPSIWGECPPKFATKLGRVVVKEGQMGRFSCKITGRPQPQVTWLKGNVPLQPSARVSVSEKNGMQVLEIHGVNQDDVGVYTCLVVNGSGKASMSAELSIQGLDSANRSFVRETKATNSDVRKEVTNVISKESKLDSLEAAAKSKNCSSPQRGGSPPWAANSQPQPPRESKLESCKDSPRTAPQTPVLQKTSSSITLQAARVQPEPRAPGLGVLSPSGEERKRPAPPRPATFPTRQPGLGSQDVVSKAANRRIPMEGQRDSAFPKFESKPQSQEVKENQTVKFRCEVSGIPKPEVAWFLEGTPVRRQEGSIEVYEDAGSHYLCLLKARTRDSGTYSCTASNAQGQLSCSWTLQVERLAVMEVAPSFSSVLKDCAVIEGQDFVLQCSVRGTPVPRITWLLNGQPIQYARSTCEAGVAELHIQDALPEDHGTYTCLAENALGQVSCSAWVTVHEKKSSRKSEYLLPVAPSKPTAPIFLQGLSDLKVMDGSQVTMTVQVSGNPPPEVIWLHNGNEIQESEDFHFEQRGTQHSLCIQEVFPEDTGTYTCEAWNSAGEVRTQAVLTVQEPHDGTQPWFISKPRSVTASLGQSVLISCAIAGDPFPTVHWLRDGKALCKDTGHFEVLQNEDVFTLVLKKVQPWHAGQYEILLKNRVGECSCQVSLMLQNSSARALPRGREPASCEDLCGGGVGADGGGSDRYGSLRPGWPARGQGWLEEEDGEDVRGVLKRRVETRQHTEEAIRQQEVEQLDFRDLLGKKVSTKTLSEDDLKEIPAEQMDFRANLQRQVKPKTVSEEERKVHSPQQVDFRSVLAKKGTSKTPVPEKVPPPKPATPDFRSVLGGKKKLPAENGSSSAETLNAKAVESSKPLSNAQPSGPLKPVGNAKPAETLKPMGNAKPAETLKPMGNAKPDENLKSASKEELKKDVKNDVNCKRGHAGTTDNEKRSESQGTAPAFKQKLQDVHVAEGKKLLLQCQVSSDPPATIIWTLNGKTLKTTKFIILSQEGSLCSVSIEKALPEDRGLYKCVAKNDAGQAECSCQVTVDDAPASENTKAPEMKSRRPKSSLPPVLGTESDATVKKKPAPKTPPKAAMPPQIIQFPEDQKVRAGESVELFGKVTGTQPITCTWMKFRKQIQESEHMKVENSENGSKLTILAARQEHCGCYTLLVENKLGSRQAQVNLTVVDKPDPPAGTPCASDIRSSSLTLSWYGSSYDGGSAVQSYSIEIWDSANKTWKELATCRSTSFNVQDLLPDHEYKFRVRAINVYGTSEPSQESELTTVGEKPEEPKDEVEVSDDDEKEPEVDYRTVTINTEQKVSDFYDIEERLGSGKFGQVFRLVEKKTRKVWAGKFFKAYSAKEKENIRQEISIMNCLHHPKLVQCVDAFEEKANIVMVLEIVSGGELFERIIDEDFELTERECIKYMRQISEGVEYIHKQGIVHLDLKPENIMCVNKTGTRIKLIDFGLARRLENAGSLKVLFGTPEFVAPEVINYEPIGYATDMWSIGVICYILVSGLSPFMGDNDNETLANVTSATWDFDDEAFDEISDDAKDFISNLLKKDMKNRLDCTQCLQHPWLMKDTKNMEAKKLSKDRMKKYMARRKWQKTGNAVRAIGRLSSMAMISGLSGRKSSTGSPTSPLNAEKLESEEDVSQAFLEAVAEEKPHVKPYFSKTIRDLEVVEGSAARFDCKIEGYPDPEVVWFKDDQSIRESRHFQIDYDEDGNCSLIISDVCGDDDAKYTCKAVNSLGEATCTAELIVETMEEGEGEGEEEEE
Chain of EPHB3 (human) (P54753 whole entry, looked up): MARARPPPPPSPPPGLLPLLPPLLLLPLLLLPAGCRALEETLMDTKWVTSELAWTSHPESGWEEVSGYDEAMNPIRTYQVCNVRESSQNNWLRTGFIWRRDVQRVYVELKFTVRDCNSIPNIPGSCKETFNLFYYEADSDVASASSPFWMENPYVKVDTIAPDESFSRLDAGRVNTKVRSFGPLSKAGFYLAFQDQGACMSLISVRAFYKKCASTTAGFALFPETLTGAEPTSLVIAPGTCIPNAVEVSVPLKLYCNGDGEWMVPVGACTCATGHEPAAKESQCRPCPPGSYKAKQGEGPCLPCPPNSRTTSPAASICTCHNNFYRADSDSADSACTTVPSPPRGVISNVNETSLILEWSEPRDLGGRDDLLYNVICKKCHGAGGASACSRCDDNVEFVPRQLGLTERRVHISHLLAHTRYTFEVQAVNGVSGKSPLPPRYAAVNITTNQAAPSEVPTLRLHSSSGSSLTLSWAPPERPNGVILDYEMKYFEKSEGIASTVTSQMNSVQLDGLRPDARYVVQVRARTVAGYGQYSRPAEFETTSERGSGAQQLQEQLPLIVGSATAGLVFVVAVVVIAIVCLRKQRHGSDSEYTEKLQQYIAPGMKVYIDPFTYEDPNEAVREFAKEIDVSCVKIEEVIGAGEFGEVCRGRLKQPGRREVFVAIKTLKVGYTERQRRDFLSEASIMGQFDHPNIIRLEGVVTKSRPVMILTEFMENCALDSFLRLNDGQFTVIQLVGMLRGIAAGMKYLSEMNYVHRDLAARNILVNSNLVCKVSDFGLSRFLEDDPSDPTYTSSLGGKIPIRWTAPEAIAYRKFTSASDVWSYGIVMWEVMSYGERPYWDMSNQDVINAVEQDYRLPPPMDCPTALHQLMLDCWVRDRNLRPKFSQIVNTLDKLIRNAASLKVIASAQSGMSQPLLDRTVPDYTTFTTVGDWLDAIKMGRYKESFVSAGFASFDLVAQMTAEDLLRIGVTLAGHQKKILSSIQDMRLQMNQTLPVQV
Chain of DAPK1 (human) (P53355 whole entry, looked up): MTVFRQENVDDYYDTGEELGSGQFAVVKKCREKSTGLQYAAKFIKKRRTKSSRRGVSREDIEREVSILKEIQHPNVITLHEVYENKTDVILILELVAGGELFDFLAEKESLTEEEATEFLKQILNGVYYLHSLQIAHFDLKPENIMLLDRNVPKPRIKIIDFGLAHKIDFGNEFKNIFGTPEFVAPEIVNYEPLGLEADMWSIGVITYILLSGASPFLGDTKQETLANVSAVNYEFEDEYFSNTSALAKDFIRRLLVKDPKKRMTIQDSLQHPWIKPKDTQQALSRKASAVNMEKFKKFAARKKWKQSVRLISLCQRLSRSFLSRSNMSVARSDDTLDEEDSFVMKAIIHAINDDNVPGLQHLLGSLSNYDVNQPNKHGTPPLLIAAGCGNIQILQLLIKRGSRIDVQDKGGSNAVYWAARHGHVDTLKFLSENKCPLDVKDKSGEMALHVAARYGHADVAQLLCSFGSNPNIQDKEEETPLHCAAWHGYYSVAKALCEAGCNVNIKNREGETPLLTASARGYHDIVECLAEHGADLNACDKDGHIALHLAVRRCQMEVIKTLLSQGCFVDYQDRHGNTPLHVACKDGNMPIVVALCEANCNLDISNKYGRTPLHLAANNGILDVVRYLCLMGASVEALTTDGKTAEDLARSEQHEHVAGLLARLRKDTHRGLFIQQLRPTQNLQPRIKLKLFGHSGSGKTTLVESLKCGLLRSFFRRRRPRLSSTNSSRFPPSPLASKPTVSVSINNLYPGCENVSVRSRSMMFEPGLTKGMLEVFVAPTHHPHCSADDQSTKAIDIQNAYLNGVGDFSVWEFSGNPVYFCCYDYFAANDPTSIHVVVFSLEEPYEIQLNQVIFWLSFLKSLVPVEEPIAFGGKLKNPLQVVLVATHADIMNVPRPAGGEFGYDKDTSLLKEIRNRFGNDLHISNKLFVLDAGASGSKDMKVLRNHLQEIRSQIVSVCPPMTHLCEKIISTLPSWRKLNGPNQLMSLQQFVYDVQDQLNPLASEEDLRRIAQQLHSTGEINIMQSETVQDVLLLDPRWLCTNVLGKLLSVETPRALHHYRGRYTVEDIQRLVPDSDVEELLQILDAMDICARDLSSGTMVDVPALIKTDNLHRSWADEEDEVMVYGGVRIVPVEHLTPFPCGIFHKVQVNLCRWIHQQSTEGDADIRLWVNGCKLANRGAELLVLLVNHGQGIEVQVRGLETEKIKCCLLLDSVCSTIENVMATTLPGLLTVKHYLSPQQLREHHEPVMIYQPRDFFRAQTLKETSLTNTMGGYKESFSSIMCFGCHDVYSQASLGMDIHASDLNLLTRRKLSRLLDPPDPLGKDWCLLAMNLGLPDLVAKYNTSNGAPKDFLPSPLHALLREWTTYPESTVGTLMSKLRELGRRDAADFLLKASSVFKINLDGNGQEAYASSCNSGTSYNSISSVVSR
Chain of MAPK13 (human) (O15264 whole entry, looked up): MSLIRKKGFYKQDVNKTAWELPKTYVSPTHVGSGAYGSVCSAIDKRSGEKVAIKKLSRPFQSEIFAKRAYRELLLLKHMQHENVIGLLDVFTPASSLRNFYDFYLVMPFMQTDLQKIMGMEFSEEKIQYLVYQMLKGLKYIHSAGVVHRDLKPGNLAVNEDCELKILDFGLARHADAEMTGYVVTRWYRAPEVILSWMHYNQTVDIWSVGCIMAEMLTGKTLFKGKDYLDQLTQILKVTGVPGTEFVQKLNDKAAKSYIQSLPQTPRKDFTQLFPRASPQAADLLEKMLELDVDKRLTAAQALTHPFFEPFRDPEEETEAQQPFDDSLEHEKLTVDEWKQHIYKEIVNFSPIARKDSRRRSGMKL
Chain of MAPK1 (human) (P28482 whole entry, looked up): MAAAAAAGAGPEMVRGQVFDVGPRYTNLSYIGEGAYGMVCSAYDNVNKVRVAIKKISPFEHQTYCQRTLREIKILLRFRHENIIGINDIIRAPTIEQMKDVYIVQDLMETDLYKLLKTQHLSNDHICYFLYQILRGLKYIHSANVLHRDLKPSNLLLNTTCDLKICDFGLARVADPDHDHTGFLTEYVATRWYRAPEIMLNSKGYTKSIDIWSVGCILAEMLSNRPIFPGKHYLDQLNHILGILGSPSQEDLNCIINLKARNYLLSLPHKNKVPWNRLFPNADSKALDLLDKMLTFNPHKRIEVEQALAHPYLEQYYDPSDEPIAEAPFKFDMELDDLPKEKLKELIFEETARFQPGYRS

CC(C)C[C@H](NC(=O)CNC(=O)c1cc(Cl)ccc1Cl)B1OC(=O)CC(CC(=O)O)(C(=O)O)O1 (stereo not given in full)
residual activity ([1]; compound 10.0 µM): 75% | residual activity ([2]; compound 10.0 µM): 86% | residual activity ([3]; compound 10.0 µM): 89% | residual activity ([4]; compound 10.0 µM): 69% | residual activity ([5]; compound 10.0 µM): 82% | residual activity ([6]; compound 10.0 µM): 88% | residual activity ([7]; compound 10.0 µM): 83% | residual activity ([8]; compound 10.0 µM): 62% | residual activity ([9]; compound 10.0 µM): 72% | residual activity ([10]; compound 10.0 µM): 69% | residual activity ([11]; compound 10.0 µM): 88% | residual activity ([12]; compound 10.0 µM): 97% | residual activity ([13]; compound 10.0 µM): 104% | residual activity ([14]; compound 10.0 µM): 81% | residual activity ([15]; compound 10.0 µM): 94% | residual activity ([16]; compound 10.0 µM): 75% | residual activity ([17]; compound 10.0 µM): 86% | residual activity ([18]; compound 10.0 µM): 98% | residual activity ([19]; compound 10.0 µM): 102% | residual activity ([20]; compound 10.0 µM): 86% | residual activity ([21]; compound 10.0 µM): 80% | residual activity ([22]; compound 10.0 µM): 73% | residual activity ([23]; compound 10.0 µM): 79% | residual activity ([24]; compound 10.0 µM): 80% | residual activity ([25]; compound 10.0 µM): 103% | residual activity ([26]; compound 10.0 µM): 95% | residual activity ([27]; compound 10.0 µM): 44% | residual activity ([28]; compound 10.0 µM): 82% | residual activity ([29]; compound 10.0 µM): 95% | residual activity ([30]; compound 10.0 µM): 95% | residual activity ([31]; compound 10.0 µM): 76% | residual activity ([32]; compound 10.0 µM): 80% | residual activity ([33]; compound 10.0 µM): 86% | residual activity ([34]; compound 10.0 µM): 124% | residual activity ([35]; compound 10.0 µM): 93%

Cc1nc(-c2ccc(OCC(C)C)c(C#N)c2)sc1C(=O)O
residual activity ([1]; compound 1.0 µM): 95% | residual activity ([1]; compound 10.0 µM): 96% | residual activity ([2]; compound 1.0 µM): 106% | residual activity ([2]; compound 10.0 µM): 106% | residual activity ([3]; compound 1.0 µM): 101% | residual activity ([3]; compound 10.0 µM): 60% | residual activity ([4]; compound 1.0 µM): 148% | residual activity ([4]; compound 10.0 µM): 119% | residual activity ([5]; compound 1.0 µM): 87% | residual activity ([5]; compound 10.0 µM): 71% | residual activity ([6]; compound 1.0 µM): 85% | residual activity ([6]; compound 10.0 µM): 60% | residual activity ([7]; compound 1.0 µM): 102% | residual activity ([7]; compound 10.0 µM): 95% | residual activity ([8]; compound 10.0 µM): 83% | residual activity ([9]; compound 1.0 µM): 102% | residual activity ([9]; compound 10.0 µM): 103% | residual activity ([10]; compound 10.0 µM): 103% | residual activity ([11]; compound 1.0 µM): 90% | residual activity ([11]; compound 10.0 µM): 74% | residual activity ([12]; compound 1.0 µM): 100% | residual activity ([12]; compound 10.0 µM): 99% | residual activity ([13]; compound 1.0 µM): 66% | residual activity ([13]; compound 10.0 µM): 68% | residual activity ([14]; compound 1.0 µM): 110% | residual activity ([14]; compound 10.0 µM): 102% | residual activity ([15]; compound 1.0 µM): 77% | residual activity ([15]; compound 10.0 µM): 73% | residual activity ([16]; compound 1.0 µM): 69% | residual activity ([16]; compound 10.0 µM): 47% | residual activity ([17]; compound 1.0 µM): 105% | residual activity ([18]; compound 1.0 µM): 103% | residual activity ([18]; compound 10.0 µM): 97% | residual activity ([19]; compound 1.0 µM): 102% | residual activity ([19]; compound 10.0 µM): 95% | residual activity ([20]; compound 1.0 µM): 96% | residual activity ([20]; compound 10.0 µM): 85% | residual activity ([21]; compound 1.0 µM): 84% | residual activity ([21]; compound 10.0 µM): 87% | residual activity ([22]; compound 10.0 µM): 104% | residual activity ([23]; compound 1.0 µM): 106% | residual activity ([23]; compound 10.0 µM): 95% | residual activity ([24]; compound 1.0 µM): 105% | residual activity ([24]; compound 10.0 µM): 91% | residual activity ([25]; compound 1.0 µM): 101% | residual activity ([25]; compound 10.0 µM): 79% | residual activity ([26]; compound 1.0 µM): 88% | residual activity ([27]; compound 1.0 µM): 85% | residual activity ([27]; compound 10.0 µM): 83% | residual activity ([28]; compound 1.0 µM): 92% | residual activity ([28]; compound 10.0 µM): 83% | residual activity ([29]; compound 1.0 µM): 99% | residual activity ([29]; compound 10.0 µM): 91% | residual activity ([30]; compound 1.0 µM): 93% | residual activity ([30]; compound 10.0 µM): 96% | residual activity ([31]; compound 1.0 µM): 96% | residual activity ([31]; compound 10.0 µM): 80% | residual activity ([32]; compound 1.0 µM): 92% | residual activity ([32]; compound 10.0 µM): 84% | residual activity ([33]; compound 1.0 µM): 97% | residual activity ([33]; compound 10.0 µM): 78% | residual activity ([34]; compound 1.0 µM): 86% | residual activity ([34]; compound 10.0 µM): 85% | residual activity ([35]; compound 1.0 µM): 89% | residual activity ([35]; compound 10.0 µM): 87%

O=C(NOC[C@H](O)CO)c1ccc(F)c(F)c1Nc1ccc(I)cc1Cl
residual activity ([1]; compound 1.0 µM): 87% | residual activity ([1]; compound 10.0 µM): 82% | residual activity ([2]; compound 1.0 µM): 110% | residual activity ([2]; compound 10.0 µM): 109% | residual activity ([3]; compound 1.0 µM): 95% | residual activity ([3]; compound 10.0 µM): 114% | residual activity ([4]; compound 1.0 µM): 93% | residual activity ([4]; compound 10.0 µM): 98% | residual activity ([5]; compound 1.0 µM): 107% | residual activity ([5]; compound 10.0 µM): 118% | residual activity ([6]; compound 1.0 µM): 96% | residual activity ([6]; compound 10.0 µM): 90% | residual activity ([7]; compound 1.0 µM): 83% | residual activity ([7]; compound 10.0 µM): 93% | residual activity ([8]; compound 1.0 µM): 101% | residual activity ([8]; compound 10.0 µM): 113% | residual activity ([9]; compound 10.0 µM): 87% | residual activity ([10]; compound 1.0 µM): 140% | residual activity ([10]; compound 10.0 µM): 83% | residual activity ([11]; compound 1.0 µM): 70% | residual activity ([11]; compound 10.0 µM): 88% | residual activity ([12]; compound 1.0 µM): 88% | residual activity ([12]; compound 10.0 µM): 103% | residual activity ([13]; compound 1.0 µM): 106% | residual activity ([14]; compound 1.0 µM): 92% | residual activity ([14]; compound 10.0 µM): 109% | residual activity ([15]; compound 1.0 µM): 54% | residual activity ([15]; compound 10.0 µM): 16% | residual activity ([16]; compound 1.0 µM): 95% | residual activity ([16]; compound 10.0 µM): 108% | residual activity ([17]; compound 1.0 µM): 90% | residual activity ([17]; compound 10.0 µM): 100% | residual activity ([18]; compound 1.0 µM): 85% | residual activity ([18]; compound 10.0 µM): 97% | residual activity ([19]; compound 1.0 µM): 90% | residual activity ([19]; compound 10.0 µM): 89% | residual activity ([20]; compound 1.0 µM): 112% | residual activity ([20]; compound 10.0 µM): 127% | residual activity ([21]; compound 1.0 µM): 81% | residual activity ([21]; compound 10.0 µM): 97% | residual activity ([22]; compound 1.0 µM): 117% | residual activity ([22]; compound 10.0 µM): 144% | residual activity ([23]; compound 1.0 µM): 103% | residual activity ([23]; compound 10.0 µM): 104% | residual activity ([24]; compound 1.0 µM): 93% | residual activity ([24]; compound 10.0 µM): 110% | residual activity ([25]; compound 10.0 µM): 98% | residual activity ([26]; compound 1.0 µM): 72% | residual activity ([26]; compound 10.0 µM): 75% | residual activity ([27]; compound 1.0 µM): 95% | residual activity ([27]; compound 10.0 µM): 90% | residual activity ([28]; compound 1.0 µM): 110% | residual activity ([28]; compound 10.0 µM): 107% | residual activity ([29]; compound 1.0 µM): 87% | residual activity ([29]; compound 10.0 µM): 97% | residual activity ([30]; compound 1.0 µM): 97% | residual activity ([30]; compound 10.0 µM): 104% | residual activity ([31]; compound 1.0 µM): 84% | residual activity ([32]; compound 1.0 µM): 102% | residual activity ([32]; compound 10.0 µM): 102% | residual activity ([33]; compound 1.0 µM): 104% | residual activity ([33]; compound 10.0 µM): 91% | residual activity ([34]; compound 1.0 µM): 113% | residual activity ([35]; compound 1.0 µM): 98% | residual activity ([35]; compound 10.0 µM): 121%
